According to patent US20060069132A1, “Azolecarboxamide herbicides” (priority 2004, published 2006):

What was measured:
giant foxtail = experiment: Test C pre-/postemergence herbicide test; type: in vivo, Setaria faberi; details: for Foxtail, Giant plant response rating: 500 g ai/ha
How it was run: (§1)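 Pre/post spray; non-phytotoxic solvent + surfactant. Post-timing 1–4 leaves, 2–18 cm. Read-out: visual % control vs untreated, day 12–14, greenhouse.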

woolly cupgrass = experiment: Test C pre-/postemergence herbicide test; type: in vivo, Eriochloa villosa; details: for Cupgrass, Woolly plant response rating: 500 g ai/ha
How it was run: as §1

[1] = tested on: common (oilseed) sunflower; experiment: Test C pre-/postemergence herbicide test; type: in vivo, Helianthus annuus; details: for Plant response rating (0 = no effect, 100 = complete control), Sunflower: 62 g ai/ha; for Plant response rating (0 = no effect, 100 = complete control), Sunflower / Plant response rating, Sunflower: preemergence; for Plant response rating, Sunflower: visual, 12 to 14 days; for Sunflower plant response rating: Preemergence, 500 g ai/ha, scale 0 to 100, 0 no effect, 100 complete control
How it was run: as §1

redroot pigweed = experiment: Test A pre-/postemergence herbicide test; type: in vivo, Amaranthus retroflexus
How it was run: (§2)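 Greenhouse injury scoring (0–100, complete control = 100) at approximately ten days follows simultaneous pre- and postemergence application. Soil received a directed spray after seeding; seedlings of 2–10 cm at the one- to two-leaf stage were sprayed to runoff.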

common ragweed = experiment: Test C pre-/postemergence herbicide test; type: in vivo, Ambrosia elatior; set-up: key to Plant response rating, Ragweed: 0 = no effect, 100 = complete control; details: for Ragweed plant response rating: 500 g ai/ha
How it was run: as §1

large crabgrass = experiment: Test A pre-/postemergence herbicide test; type: in vivo, Digitaria sanguinalis
How it was run: as §2

bermudagrass = experiment: Test C pre-/postemergence herbicide test; type: in vivo, Cynodon dactylon; details: for Plant response rating (0 = no effect, 100 = complete control), Bermudagrass: 62 g ai/ha; for Bermudagrass plant response rating: Preemergence, 500 g ai/ha
How it was run: as §1

barnyardgrass = experiment: Test A pre-/postemergence herbicide test; type: in vivo, Echinochloa crus-galli
How it was run: as §2

goosegrass = experiment: Test C pre-/postemergence herbicide test; type: in vivo, Eleusine indica; details: for Goosegrass plant response rating: 500 g ai/ha
How it was run: as §1

[2] = tested on: smallflower umbrella sedge; experiment: Test C flooded paddy test; type: in vivo, Cyperus difformis
[3] = 125 g ai/ha, scale 0 (no effect) to 100 (complete control), visual, 12 to 14 days, preemergence
[4] = 250 g ai/ha, scale 0 to 100 (0 no effect, 100 complete control), visual, 12 to 14 days, preemergence
[5] = Preemergence, scale 0 to 100, 0 no effect, 100 complete control
[6] = 125 g ai/ha, scale 0 (no effect) to 100 (complete control)
[7] = Postemergence, 500 g ai/ha, 0 to 100 scale, 0 no effect, 100 complete control
[8] = Postemergence, 2000 g ai/ha, 0 to 100 scale, 0 no effect, 100 complete control
[9] = Preemergence, 500 g ai/ha, visual rating, 0 to 100 scale (0 no effect, 100 complete control)
[10] = Preemergence, 2000 g ai/ha, 0 to 100 scale, 0 no effect, 100 complete control
[11] = scale 0 to 100, 0 no effect, 100 complete control
[12] = 62 g ai/ha, scale 0 to 100 (0 no effect, 100 complete control)
[13] = Postemergence, 250 g ai/ha, scale 0 to 100, 0 no effect, 100 complete control
[14] = postemergence, 125 g ai/ha, scale 0 to 100
[15] = postemergence, 62 g ai/ha, scale 0 to 100
[16] = Preemergence, 2000 g ai/ha, visual rating, 0 to 100 scale (0 no effect, 100 complete control)

SMILES: CCN1CCc2c(NC(=O)c3cc(C(C)(C)C)nn3CC)cccc2C1=O [Compound 63]
- Plant response rating (0 = no effect, 100 = complete control), Foxtail, Giant (giant foxtail; 62 g ai/ha, preemergence): 0
- Plant response rating, Foxtail, Giant (giant foxtail; [3]): 5
- Plant response rating, Foxtail, Giant (giant foxtail; [4]): 10
- Foxtail, Giant plant response rating (giant foxtail; [5]): 80
- Plant response rating (0 = no effect, 100 = complete control), Cupgrass, Woolly (woolly cupgrass; 62 g ai/ha, preemergence): 0
- Plant response rating, Cupgrass, Woolly (woolly cupgrass; [3]): 0
- Plant response rating, Cupgrass, Woolly (woolly cupgrass; [4]): 0
- Cupgrass, Woolly plant response rating (woolly cupgrass; [5]): 5
- Plant response rating (0 = no effect, 100 = complete control), Sunflower [1]: 0
- Plant response rating, Sunflower [1, 6]: 0
- Plant response rating, Sunflower ([1]; 250 g ai/ha, scale 0 to 100 (0 no effect, 100 complete control)): 0
- Sunflower plant response rating [1]: 30
- Plant response rating, Pigweed (redroot pigweed; [7]): 95
- Plant response rating, Pigweed (redroot pigweed; [8]): 100
- Pigweed plant response rating (redroot pigweed; [9]): 100
- Pigweed plant response rating (redroot pigweed; [10]): 100
- Plant response rating (0 = no effect, 100 = complete control), Ragweed (common ragweed; 62 g ai/ha, preemergence): 0
- Plant response rating, Ragweed (common ragweed; [3]): 0
- Plant response rating, Ragweed (common ragweed; [4]): 10
- Ragweed plant response rating (common ragweed; [5]): 95
- Plant response rating, Crabgrass, Large (large crabgrass; [7]): 40
- Plant response rating, Crabgrass, Large (large crabgrass; [8]): 80
- Crabgrass, Large plant response rating (large crabgrass; [9]): 90
- Crabgrass, Large plant response rating (large crabgrass; [10]): 100
- Plant response rating (0 = no effect, 100 = complete control), Bermudagrass (bermudagrass; preemergence): 50
- Plant response rating, Bermudagrass (bermudagrass; [3]): 90
- Plant response rating, Bermudagrass (bermudagrass; [4]): 90
- Bermudagrass plant response rating (bermudagrass; [11]): 100
- Plant response rating, Barnyardgrass (barnyardgrass; [7]): 60
- Plant response rating, Barnyardgrass (barnyardgrass; [8]): 90
- Barnyardgrass plant response rating (barnyardgrass; [9]): 70
- Barnyardgrass plant response rating (barnyardgrass; [10]): 100
- Plant response rating (0 = no effect, 100 = complete control), Goosegrass (goosegrass; 62 g ai/ha, preemergence): 10
- Plant response rating, Goosegrass (goosegrass; [3]): 45
- Plant response rating, Goosegrass (goosegrass; [4]): 60
- Goosegrass plant response rating (goosegrass; [5]): 90
- Sedge, Umbrella plant response rating [2, 12]: 0
- Sedge, Umbrella plant response rating ([2]; 125 g ai/ha, scale of 0 to 100, 0 is no effect, 100 is complete control): 70
- Sedge, Umbrella plant response rating ([2]; 250 g ai/ha, scale of 0 to 100, 0 is no effect, 100 is complete control): 80
- Plant response rating, Sedge, Umbrella ([2]; 500 g ai/ha, visual rating after 12 to 14 days, scale 0 to 100 (0 no effect, 100 complete control)): 90

SMILES: C#CCNC(=O)c1cccc(NC(=O)c2cc(C(C)(C)C)nn2CC)n1 [Compound 147]
- Plant response rating (0 = no effect, 100 = complete control), Foxtail, Giant (giant foxtail; 62 g ai/ha, preemergence): 0
- Plant response rating, Foxtail, Giant (giant foxtail; [3]): 0
- Plant response rating, Foxtail, Giant (giant foxtail; [4]): 30
- Foxtail, Giant plant response rating (giant foxtail; Postemergence, scale 0 to 100): 45
- Plant response rating, Foxtail, Giant (giant foxtail; [13]): 0
- Foxtail, Giant plant response rating (giant foxtail; [5]): 100
- Plant response rating, Foxtail, Giant (giant foxtail; [14]): 0
- Plant response rating, Foxtail, Giant (giant foxtail; [15]): 0
- Plant response rating (0 = no effect, 100 = complete control), Cupgrass, Woolly (woolly cupgrass; 62 g ai/ha, preemergence): 0
- Plant response rating, Cupgrass, Woolly (woolly cupgrass; [3]): 10
- Plant response rating, Cupgrass, Woolly (woolly cupgrass; [4]): 10
- Cupgrass, Woolly plant response rating (woolly cupgrass; Postemergence, scale 0 to 100): 30
- Plant response rating, Cupgrass, Woolly (woolly cupgrass; [13]): 10
- Cupgrass, Woolly plant response rating (woolly cupgrass; [5]): 60
- Plant response rating, Cupgrass, Woolly (woolly cupgrass; [14]): 0
- Plant response rating, Cupgrass, Woolly (woolly cupgrass; [15]): 0
- Plant response rating (0 = no effect, 100 = complete control), Sunflower [1]: 0
- Plant response rating, Sunflower [1, 6]: 0
- Sunflower plant response rating [1]: 0
- Pigweed plant response rating (redroot pigweed; [7]): 90
- Plant response rating, Pigweed (redroot pigweed; [8]): 100
- Pigweed plant response rating (redroot pigweed; [16]): 100
- Pigweed plant response rating (redroot pigweed; preemergence, 500 g ai/ha, visual injury, 0 to 100 scale (0 no effect, 100 complete control)): 85
- Plant response rating (0 = no effect, 100 = complete control), Ragweed (common ragweed; 62 g ai/ha, preemergence): 0
- Plant response rating, Ragweed (common ragweed; [3]): 0
- Ragweed plant response rating (common ragweed; Postemergence, scale 0 to 100): 10
- Plant response rating, Ragweed (common ragweed; [13]): 10
- Ragweed plant response rating (common ragweed; [5]): 70
- Plant response rating, Ragweed (common ragweed; [14]): 0
- Plant response rating, Ragweed (common ragweed; [15]): 0
- Crabgrass, Large plant response rating (large crabgrass; [7]): 40
- Plant response rating, Crabgrass, Large (large crabgrass; [8]): 90
- Crabgrass, Large plant response rating (large crabgrass; [9]): 85
- Crabgrass, Large plant response rating (large crabgrass; [16]): 90
- Plant response rating (0 = no effect, 100 = complete control), Bermudagrass (bermudagrass; preemergence): 40
- Plant response rating, Bermudagrass (bermudagrass; [3]): 70
- Plant response rating, Bermudagrass (bermudagrass; [4]): 90
- Plant response rating, Bermudagrass (bermudagrass; [13]): 70
- Bermudagrass plant response rating (bermudagrass; [11]): 95
- Barnyardgrass plant response rating (barnyardgrass; [7]): 55
- Plant response rating, Barnyardgrass (barnyardgrass; [8]): 95
- Barnyardgrass plant response rating (barnyardgrass; [9]): 40
- Barnyardgrass plant response rating (barnyardgrass; [16]): 95
- Plant response rating (0 = no effect, 100 = complete control), Goosegrass (goosegrass; 62 g ai/ha, preemergence): 0
- Plant response rating, Goosegrass (goosegrass; [3]): 20
- Goosegrass plant response rating (goosegrass; Postemergence, scale 0 to 100): 5
- Plant response rating, Goosegrass (goosegrass; [13]): 5
- Goosegrass plant response rating (goosegrass; [5]): 80
- Plant response rating, Goosegrass (goosegrass; [14]): 0
- Plant response rating, Goosegrass (goosegrass; [15]): 0
- Sedge, Umbrella plant response rating ([2]; 16 g ai/ha, scale 0 to 100): 0
- Sedge, Umbrella plant response rating ([2]; 31 g ai/ha, scale 0 to 100): 20
- Sedge, Umbrella plant response rating [2, 12]: 30
- Sedge, Umbrella plant response rating ([2]; 125 g ai/ha, scale 0 to 100 (0 no effect, 100 complete control)): 50
